Results published in US20130005811A1, “ANTIMICROBIAL TREATMENT FOR SEEDS AND SPROUTS” (priority 2010, published 2013).

What was measured:
watermelon seeds = assay: Germination of treated watermelon seeds; conditions: 0.05% SDS alone (negative control)
[1] = test system: Acidovorax avenae subsp. citrulli (Aac)
Protocol: (§1) The ability of combinations of levulinic acid and SDS to kill a range of plant pathogenic bacteria in vitro was tested. Nutrient broth liquid cultures were supplemented with 3%, 1%, or 0.5% levulinic acid. A range of gram-negative plant pathogenic bacteria was screened, including Acidovorax avenae subsp. citrulli, Erwinia (Pectobacterium) carotovora subsp. carotovora, Xanthomonas campestris pv. campestris, Xanthomonas axonopodis pv. vesicatoria and Pantoea ananatis subsp. ananatis. […] Each bacterium was evaluated 10 times and the experiment was repeated.
(§2) The effect of levulinic acid on in vitro growth of a range of phytobacteria was determined using a Microbiology Reader BioscreenC (Transgalactic Ltd.; Helsinki, Finland) according to manufacturer's instructions. Briefly, inoculum was generated by transferring one colony of each bacterium from a three-day-old nutrient agar culture (Difco) to 5 ml of nutrient broth. Broth cultures were incubated overnight at 30° C. with continuous agitation and cells from 1 ml of broth were harvested by centrifugation (16,200×g) for 3 min and adjusted to about 3.0×10^8 CFU/ml (ODA600 nm=0.3) spectrophotometrically (Spectronic 20, Bausch and Lomb, Rochester, N.Y.). Cell suspensions were ten-fold serially diluted to desired concentrations, and 10 μl of each suspension was transferred to a single well in a honeycomb plate (Oy Growth Curves AB Ltd., Helsinki, Finland) containing 190 μl of nutrient broth amended with 3%, 1% or 0.5% levulinic acid. This yielded a starting suspension of about 1.5×10^4 CFU/ml. The microplate containing ten replicates of each bacterium×levulinic acid concentration treatment was incubated at 30° C. with continuous agitation in a BioscreenC MBR incubator/reader. Optical density measurements of each well were taken at a wavelength of 600 nm at 30 min intervals for 30 hr.

[2] = test system: Erwinia carotovora subsp. carotovora (ECC)
Protocol: as §1, §2

[3] = test system: Xanthomonas campestris pv. campestris (XCC)
Protocol: as §1, §2

Pantoea ananatis (PNA) = test system: Pantoea ananatis (PNA)
Protocol: as §1, §2

[4] = test system: Xanthomonas campestris pv. vesicatoria (XCV)
Protocol: as §1, §2

[5] = test system: Clavibacter michiganenses subsp. michiganenses (CMM); conditions: 0.5% levulinic acid, 30° C., 30 hr, OD 600 nm
Protocol: as §2

[6] = 0.5% levulinic acid, 30° C., 30 hr, OD 600 nm

SMILES	Germination percentage (watermelon seeds)	Kind of action (broth cultures plated after incubation) [1]	Number of viable cells in the liquid broth ([1]; 0.5% levulinic acid)	In vitro growth in nutrient broth [1, 6]	Kind of action (broth cultures plated after incubation) [2]	Number of viable cells in the liquid broth ([2]; 0.5% levulinic acid)	In vitro growth in nutrient broth [2, 6]	Kind of action (broth cultures plated after incubation) [3]	Number of viable cells in the liquid broth ([3]; 0.5% levulinic acid)	In vitro growth in nutrient broth [3, 6]	Kind of action (broth cultures plated after incubation) (Pantoea ananatis (PNA))	Number of viable cells in the liquid broth (Pantoea ananatis (PNA); 0.5% levulinic acid)	In vitro growth in nutrient broth (Pantoea ananatis (PNA); [6])	Kind of action (broth cultures plated after incubation) [4]	Number of viable cells in the liquid broth ([4]; 0.5% levulinic acid)	In vitro growth in nutrient broth [4, 6]	In vitro growth in nutrient broth [5]
CCCCCCCCCCCCOS(=O)(=O)[O-].[Na+] [0.05% SDS, sodium dodecyl sulfate]	89.25%	–	–	–	–	–	–	–	–	–	–	–	–	–	–	–	–
CC(=O)CCC(=O)O [levulinic acid, Levulinic acid]	–	bactericidal rather than bacteristatic	killed the pathogens	prevented the growth	bactericidal rather than bacteristatic	killed the pathogens	prevented the growth	bactericidal rather than bacteristatic	killed the pathogens	prevented the growth	bactericidal rather than bacteristatic	killed the pathogens	prevented the growth	bactericidal rather than bacteristatic	killed the pathogens	prevented the growth	prevented the growth
